Laboratory results published in patent US9061029B2, “Method of treating proliferative disorders and other pathological conditions mediated by Bcr-Abl, c-Kit, DDR1, DDR2 or PDGF-R kinase activity” (Novartis AG, priority 2009, dated 2015).
Read-outs that look alike come from different tables or passages of the source.

Tests used:
[1] = administration of nilotinib in a fruit preparation, human subjects
Procedure: All treatments were administered with 240 mL of water, in the morning, after an overnight fast of at least 10 hours. Subjects continued to fast until 4 hours after administration. […] Consumption of grapefruit, grapefruit juice, or any caffeinated beverages within 48 hours of study initiation was prohibited.
At each time point, 2.5 mL of whole blood was drawn using a Serum Separator Vacutainer® (Becton, Dickinson and Company, Franklin Lakes, N.J., USA) tube. The tube was allowed to stand vertically at room temperature for 30 minutes prior to centrifugation at 5° C. for 10 minutes at 1100 g. Immediately after centrifugation, the upper serum sample was transferred and stored frozen at ≦−15° C. until shipped to the analytical site for sample analyses.
The MTBE layer was transferred, evaporated to dryness, and reconstituted with 400 μl of an acetonitrile and 0.2% formic acid mixture (40:60, v/v). Chromatography was carried out using a Phenomenex Synergi™ Polar-RP column (particle size 4 μm, 50 mm×2 mm i.d.) (Phenomenex, Inc, Torrance, Calif.) held at room temperature. Elution of the analytes was performed using a isocratic elution at a flow rate of 0.5 mL/min with mobile phases of 0.2% formic acid in 10 mM aqueous ammonium formate: 0.2% formic acid in acetonitrile (60:40, v/v).

[2] = 400 mg oral capsule, cited from earlier work
[3] = concurrent intake of grapefruit juice; cited from earlier work
[4] = light breakfast given 30 minutes prior to dosing

## Cc1cn(-c2cc(NC(=O)c3ccc(C)c(Nc4nccc(-c5cccnc5)n4)c3)cc(C(F)(F)F)c2)cn1 [nilotinib, 4-methyl-3-[[4-(3-pyridinyl)-2-pyrimidinyl]amino]-N-[5-(4-methyl-1H-imidazol-1-yl)-3-(trifluoromethyl)-phenyl]benzamide]
[1]
  safety and tolerability: safe and well tolerated
[2]; after a high fat breakfast
  increase in Cmax: 112%
  increase in total exposure (AUC0-t): 82%
[2]; [4]
  increase in Cmax: 55%
  increase in total exposure (AUC0-t): 29%
[3]
  AUC increase: 29%
  Cmax increase: 60%
